Measured values as given in article PMC9436958, “The synthesis of novel thioderivative chalcones and their influence on NF-κB, STAT3 and NRF2 signaling pathways in colorectal cancer cells” (Scientific Reports, 2022).

Test system: NF-κB p65
Assay: Transcription factor ELISA, NF-κB p65 binding to DNA
Type: cell-based
Conditions: DLD-1 cells (context); 1, 4 at 1 μM; 2, 8 at 5 μM; vs control
Procedure: To estimate NF-ΚB (p50 and p65 subunits) STAT3 and Nrf2 activation, enzymatic immunoassays with the Transcription Factor ELISA Kit (TransAM™NF-κB, TransAM™STAT3/TransAM™Nrf2, Active Motif, Carlsbad CA, USA) were used following the manufacturer’s protocol. Briefly, proper consensus-site double-strand oligonucleotides (NF-κB—5′-GGGACTTTCC-3′; STAT3-5’—TTCCCGGAA-3’; Nrf2-5ʹ—[…]-3ʹ) were immobilized on an ELISA plate and incubated for one hour with the nuclear extracts. The activated subunits bound to DNA were recognized with a specific primary antibody and detected with an HRP-conjugated secondary antibody. The number of subunits was determined by spectrophotometry at λ = 450 nm. The number of p50, and p65 subunits, STAT3, as well as the amount of Nrf2 contained in the DNA-binding complex, corresponded to the activated NF-κB, STAT3, or Nrf2 transcription factors.

With `COc1cc(C(=O)/C=C/c2cccc(SC)c2)cc(Br)c1OC` [chalcone 4] the “reduction of the binding of the p65 subunit to DNA” value was 21%.
